# Test system: rodent lifetime carcinogenesis bioassay, tumor incidence TD50
# Test: carcinogenic potency in animals, long-term in vivo studies, CPDB compilation (AID 1745844)
# Details: in drinking water
smiles,measurement,setting,value
Cc1cc(-c2ccc(N)c(C)c2)ccc1N,TD50,"mouse, strain BALB/cStCrlfC3Hf/Nctr, females, site: lung, lesion: adenocarcinoma, dosed 52 weeks, study length 52 weeks",147 mg/kg/day
same,TD50,"mouse, strain BALB/cStCrlfC3Hf/Nctr, females, site: lung, lesion: adenocarcinoma, dosed 78 weeks, study length 78 weeks",168 mg/kg/day
same,TD50,"mouse, strain BALB/cStCrlfC3Hf/Nctr, females, site: lung, lesion: several types, types named in the paper, dosed 52 weeks, study length 52 weeks",28.1 mg/kg/day
same,TD50,"mouse, strain BALB/cStCrlfC3Hf/Nctr, females, site: lung, lesion: several types, types named in the paper, dosed 78 weeks, study length 78 weeks",295 mg/kg/day
same,TD50,"mouse, strain BALB/cStCrlfC3Hf/Nctr, males, site: lung, lesion: adenocarcinoma, dosed 52 weeks, study length 52 weeks",123 mg/kg/day
same,TD50,"mouse, strain BALB/cStCrlfC3Hf/Nctr, males, site: lung, lesion: adenocarcinoma, dosed 112 weeks, study length 112 weeks",50.1 mg/kg/day
same,TD50,"mouse, strain BALB/cStCrlfC3Hf/Nctr, males, site: lung, lesion: several types, types named in the paper, dosed 52 weeks, study length 52 weeks",684 mg/kg/day
same,TD50,"mouse, strain BALB/cStCrlfC3Hf/Nctr, males, site: lung, lesion: several types, types named in the paper, dosed 78 weeks, study length 78 weeks",423 mg/kg/day
same,TD50,"mouse, strain BALB/cStCrlfC3Hf/Nctr, males, site: lung, lesion: several types, types named in the paper, dosed 112 weeks, study length 112 weeks",28.6 mg/kg/day
same,TD50,"rat, strain Fischer 344, females, site: Zymbal's gland, lesion: adenoma + adenoma, bilateral + carcinoma + carcinoma, bilateral, dosed 60 weeks, study length 60 weeks",1.27 mg/kg/day
same,TD50,"rat, strain Fischer 344, females, site: Zymbal's gland, lesion: adenoma + adenoma, bilateral, dosed 60 weeks, study length 60 weeks",3.08 mg/kg/day
same,TD50,"rat, strain Fischer 344, females, site: Zymbal's gland, lesion: carcinoma + carcinoma, bilateral, dosed 60 weeks, study length 60 weeks",2 mg/kg/day
same,TD50,"rat, strain Fischer 344, females, site: all sites, lesion: mononuclear-cell leukemia, dosed 60 weeks, study length 60 weeks",6.46 mg/kg/day
same,TD50,"rat, strain Fischer 344, females, site: any site (literature study), lesion: several types, types named in the paper, dosed 60 weeks, study length 60 weeks",0.462 mg/kg/day
same,TD50,"rat, strain Fischer 344, females, site: brain, lesion: astrocytoma, malignant + malignant glioma + meningioma, malignant, dosed 60 weeks, study length 60 weeks",15.4 mg/kg/day
same,TD50,"rat, strain Fischer 344, females, site: clitoral gland + colon + duodenum + ileum + jejunum + liver + lung + mammary gland + pharynx + rectum + skin + tongue + Zymbal's gland, lesion: adenoma + adenoma, bilateral + carcinoma + carcinoma, bilateral + adenocarcinoma + adenomatous polyp + mucinous adenocarcinoma + mucin, dosed 60 weeks, study length 60 weeks",0.418 mg/kg/day
same,TD50,"rat, strain Fischer 344, females, site: clitoral gland, lesion: adenoma + adenoma, bilateral + carcinoma + carcinoma, bilateral, dosed 60 weeks, study length 60 weeks",0.847 mg/kg/day
same,TD50,"rat, strain Fischer 344, females, site: clitoral gland, lesion: adenoma + adenoma, bilateral, dosed 60 weeks, study length 60 weeks",1.31 mg/kg/day
same,TD50,"rat, strain Fischer 344, females, site: clitoral gland, lesion: carcinoma + carcinoma, bilateral, dosed 60 weeks, study length 60 weeks",2.58 mg/kg/day
same,TD50,"rat, strain Fischer 344, females, site: colon + rectum, lesion: adenocarcinoma + adenomatous polyp, dosed 60 weeks, study length 60 weeks",6.65 mg/kg/day
same,TD50,"rat, strain Fischer 344, females, site: colon + rectum, lesion: adenomatous polyp, dosed 60 weeks, study length 60 weeks",7.11 mg/kg/day
same,TD50,"rat, strain Fischer 344, females, site: duodenum + ileum + jejunum, lesion: adenocarcinoma + adenomatous polyp + mucinous adenocarcinoma + mucinous cystadenocarcinoma, dosed 60 weeks, study length 60 weeks",11 mg/kg/day
same,TD50,"rat, strain Fischer 344, females, site: duodenum + ileum + jejunum, lesion: adenocarcinoma + mucinous adenocarcinoma + mucinous cystadenocarcinoma, dosed 60 weeks, study length 60 weeks",15.4 mg/kg/day
same,TD50,"rat, strain Fischer 344, females, site: liver, lesion: hepatocellular adenoma + hepatocellular carcinoma + neoplastic nodule, dosed 60 weeks, study length 60 weeks",6.97 mg/kg/day
same,TD50,"rat, strain Fischer 344, females, site: liver, lesion: hepatocellular carcinoma + neoplastic nodule, dosed 60 weeks, study length 60 weeks",6.97 mg/kg/day
same,TD50,"rat, strain Fischer 344, females, site: liver, lesion: neoplastic nodule, dosed 60 weeks, study length 60 weeks",7.62 mg/kg/day
same,TD50,"rat, strain Fischer 344, females, site: lung, lesion: alveolar/bronchiolar adenoma + alveolar/bronchiolar carcinoma, dosed 60 weeks, study length 60 weeks",11.9 mg/kg/day
same,TD50,"rat, strain Fischer 344, females, site: lung, lesion: alveolar/bronchiolar adenoma, dosed 60 weeks, study length 60 weeks",13.6 mg/kg/day
same,TD50,"rat, strain Fischer 344, females, site: mammary gland, lesion: adenocarcinoma + fibroadenoma, dosed 60 weeks, study length 60 weeks",5.77 mg/kg/day
same,TD50,"rat, strain Fischer 344, females, site: mammary gland, lesion: adenocarcinoma, dosed 60 weeks, study length 60 weeks",8.33 mg/kg/day
same,TD50,"rat, strain Fischer 344, females, site: pharynx + tongue, lesion: squamous-cell carcinoma + squamous-cell papilloma, dosed 60 weeks, study length 60 weeks",3.2 mg/kg/day
same,TD50,"rat, strain Fischer 344, females, site: pharynx + tongue, lesion: squamous-cell carcinoma, dosed 60 weeks, study length 60 weeks",11.8 mg/kg/day
same,TD50,"rat, strain Fischer 344, females, site: pharynx + tongue, lesion: squamous-cell papilloma, dosed 60 weeks, study length 60 weeks",4.26 mg/kg/day
same,TD50,"rat, strain Fischer 344, females, site: skin, lesion: basal-cell adenoma + basal-cell carcinoma, dosed 60 weeks, study length 60 weeks",3.8 mg/kg/day
same,TD50,"rat, strain Fischer 344, females, site: skin, lesion: basal-cell adenoma, dosed 60 weeks, study length 60 weeks",5.77 mg/kg/day
same,TD50,"rat, strain Fischer 344, females, site: skin, lesion: basal-cell carcinoma, dosed 60 weeks, study length 60 weeks",11.6 mg/kg/day
same,TD50,"rat, strain Fischer 344, females, site: skin, lesion: squamous-cell carcinoma + squamous-cell papilloma, dosed 60 weeks, study length 60 weeks",3.17 mg/kg/day
same,TD50,"rat, strain Fischer 344, females, site: skin, lesion: squamous-cell carcinoma, dosed 60 weeks, study length 60 weeks",5.56 mg/kg/day
same,TD50,"rat, strain Fischer 344, females, site: skin, lesion: squamous-cell papilloma, dosed 60 weeks, study length 60 weeks",7.06 mg/kg/day
same,TD50,"rat, strain Fischer 344, males, site: Zymbal's gland, lesion: adenoma + adenoma, bilateral + carcinoma + carcinoma, bilateral, dosed 58 weeks, study length 60 weeks",1.12 mg/kg/day
same,TD50,"rat, strain Fischer 344, males, site: Zymbal's gland, lesion: adenoma + adenoma, bilateral, dosed 58 weeks, study length 60 weeks",2.38 mg/kg/day
same,TD50,"rat, strain Fischer 344, males, site: Zymbal's gland, lesion: carcinoma + carcinoma, bilateral, dosed 58 weeks, study length 60 weeks",1.93 mg/kg/day
same,TD50,"rat, strain Fischer 344, males, site: adrenal medulla, lesion: pheochromocytoma, benign, dosed 58 weeks, study length 60 weeks",10.6 mg/kg/day
same,TD50,"rat, strain Fischer 344, males, site: any site (literature study), lesion: several types, types named in the paper, dosed 58 weeks, study length 60 weeks",0.334 mg/kg/day
same,TD50,"rat, strain Fischer 344, males, site: brain, lesion: glioma malignant, focal, mild + malignant glioma + meningioma, malignant, dosed 58 weeks, study length 60 weeks",26.1 mg/kg/day
same,TD50,"rat, strain Fischer 344, males, site: cecum + colon + duodenum + ileum + jejunum + large intestine + liver + lung + multiple organs + pharynx + preputial gland + rectum + skin + tongue, lesion: adenomatous polyp + adenocarcinoma + mucinous cystadenocarcinoma + hepatocellular carcinoma + neoplastic nodule + alveolar/bronchi, dosed 58 weeks, study length 60 weeks",0.346 mg/kg/day
same,TD50,"rat, strain Fischer 344, males, site: cecum + colon + large intestine + rectum, lesion: adenomatous polyp + adenocarcinoma + mucinous cystadenocarcinoma, dosed 58 weeks, study length 60 weeks",3.76 mg/kg/day
same,TD50,"rat, strain Fischer 344, males, site: cecum + colon + rectum, lesion: adenomatous polyp, dosed 58 weeks, study length 60 weeks",4.87 mg/kg/day
same,TD50,"rat, strain Fischer 344, males, site: colon + large intestine + rectum, lesion: adenocarcinoma + mucinous cystadenocarcinoma, dosed 58 weeks, study length 60 weeks",14.4 mg/kg/day
same,TD50,"rat, strain Fischer 344, males, site: duodenum + ileum + jejunum, lesion: mucinous cystadenocarcinoma + adenocarcinoma + adenomatous polyp, dosed 58 weeks, study length 60 weeks",6.99 mg/kg/day
same,TD50,"rat, strain Fischer 344, males, site: duodenum + ileum + jejunum, lesion: mucinous cystadenocarcinoma + adenocarcinoma, dosed 58 weeks, study length 60 weeks",7.79 mg/kg/day
same,TD50,"rat, strain Fischer 344, males, site: liver, lesion: hepatocellular adenoma + hepatocellular carcinoma + neoplastic nodule, dosed 58 weeks, study length 60 weeks",0.898 mg/kg/day
same,TD50,"rat, strain Fischer 344, males, site: liver, lesion: hepatocellular carcinoma + neoplastic nodule, dosed 58 weeks, study length 60 weeks",0.898 mg/kg/day
same,TD50,"rat, strain Fischer 344, males, site: liver, lesion: hepatocellular carcinoma, dosed 58 weeks, study length 60 weeks",2.76 mg/kg/day
same,TD50,"rat, strain Fischer 344, males, site: liver, lesion: neoplastic nodule, dosed 58 weeks, study length 60 weeks",1.12 mg/kg/day
same,TD50,"rat, strain Fischer 344, males, site: lung, lesion: alveolar/bronchiolar adenoma + alveolar/bronchiolar carcinoma, dosed 58 weeks, study length 60 weeks",4.93 mg/kg/day
same,TD50,"rat, strain Fischer 344, males, site: lung, lesion: alveolar/bronchiolar adenoma, dosed 58 weeks, study length 60 weeks",5.47 mg/kg/day
same,TD50,"rat, strain Fischer 344, males, site: multiple organs, lesion: mesothelioma, malignant, dosed 58 weeks, study length 60 weeks",9.45 mg/kg/day
same,TD50,"rat, strain Fischer 344, males, site: pharynx + tongue, lesion: squamous-cell carcinoma + squamous-cell papilloma, dosed 58 weeks, study length 60 weeks",8.47 mg/kg/day
same,TD50,"rat, strain Fischer 344, males, site: pharynx + tongue, lesion: squamous-cell carcinoma, dosed 58 weeks, study length 60 weeks",26.7 mg/kg/day
same,TD50,"rat, strain Fischer 344, males, site: preputial gland, lesion: adenoma + carcinoma, dosed 58 weeks, study length 60 weeks",3.96 mg/kg/day
same,TD50,"rat, strain Fischer 344, males, site: preputial gland, lesion: adenoma, dosed 58 weeks, study length 60 weeks",4.94 mg/kg/day
same,TD50,"rat, strain Fischer 344, males, site: skin, lesion: basal-cell adenoma + basal-cell carcinoma, dosed 58 weeks, study length 60 weeks",0.5 mg/kg/day
same,TD50,"rat, strain Fischer 344, males, site: skin, lesion: basal-cell adenoma, dosed 58 weeks, study length 60 weeks",0.534 mg/kg/day
same,TD50,"rat, strain Fischer 344, males, site: skin, lesion: basal-cell carcinoma, dosed 58 weeks, study length 60 weeks",8.85 mg/kg/day
same,TD50,"rat, strain Fischer 344, males, site: skin, lesion: keratoacanthoma, dosed 58 weeks, study length 60 weeks",4.58 mg/kg/day
same,TD50,"rat, strain Fischer 344, males, site: skin, lesion: sebaceous adenoma, dosed 58 weeks, study length 60 weeks",5.62 mg/kg/day
same,TD50,"rat, strain Fischer 344, males, site: skin, lesion: squamous-cell carcinoma + squamous-cell papilloma, dosed 58 weeks, study length 60 weeks",1.55 mg/kg/day
same,TD50,"rat, strain Fischer 344, males, site: skin, lesion: squamous-cell carcinoma, dosed 58 weeks, study length 60 weeks",2.8 mg/kg/day
same,TD50,"rat, strain Fischer 344, males, site: skin, lesion: squamous-cell papilloma, dosed 58 weeks, study length 60 weeks",3.28 mg/kg/day

# Reference: PubChem BioAssay AID1745844 (Carcinogenic Potency Database (CPDB), 2022)
